Reference: ChEMBL document CHEMBL4507264, “Data for DCP probe BAY-7598” (2021)

How the values were obtained:
[1] = target: Serine/threonine-protein kinase BRSK2 (Homo sapiens) (UniProt Q8IWQ3); details: Compound concentration 1000.0 nM
[2] = target: Tyrosine-protein kinase FRK (Homo sapiens) (UniProt P42685); details: Compound concentration 1000.0 nM
[3] = target: Serine/threonine-protein kinase PLK4 (Homo sapiens) (UniProt O00444); details: Compound concentration 1000.0 nM
[4] = target: RAC-gamma serine/threonine-protein kinase (Homo sapiens) (UniProt Q9Y243); details: Compound concentration 1000.0 nM
[5] = target: Receptor tyrosine-protein kinase erbB-3 (Homo sapiens) (UniProt P21860); details: Compound concentration 1000.0 nM
[6] = target: Focal adhesion kinase 1 (Homo sapiens) (UniProt Q05397); details: Compound concentration 1000.0 nM
[7] = target: Interferon-induced, double-stranded RNA-activated protein kinase (Homo sapiens) (UniProt P19525); details: Compound concentration 1000.0 nM
[8] = target: Interleukin-1 receptor-associated kinase 1 (Homo sapiens) (UniProt P51617); details: Compound concentration 1000.0 nM
[9] = target: Mitogen-activated protein kinase 14 (Homo sapiens) (UniProt Q16539); details: Compound concentration 1000.0 nM
[10] = target: Mitotic checkpoint serine/threonine-protein kinase BUB1 (Homo sapiens) (UniProt O43683); details: Compound concentration 1000.0 nM
[11] = target: Casein kinase II subunit alpha (Homo sapiens) (UniProt P68400); details: Compound concentration 1000.0 nM
[12] = target: Cyclin-dependent kinase 3 (Homo sapiens) (UniProt Q00526); details: Compound concentration 1000.0 nM
[13] = system: Serine/threonine-protein kinase B-raf (Homo sapiens), P15056 [V600E]; details: Compound concentration 1000.0 nM
[14] = target: Casein kinase II subunit alpha' (Homo sapiens) (UniProt P19784); details: Compound concentration 1000.0 nM
[15] = target: Alpha-2A adrenergic receptor (Homo sapiens) (UniProt P08913); details: Compound concentration 10.0 uM
[16] = target: Ephrin type-A receptor 1 (Homo sapiens) (UniProt P21709); details: Compound concentration 1000.0 nM
[17] = target: BDNF/NT-3 growth factors receptor (Homo sapiens) (UniProt Q16620); details: Compound concentration 1000.0 nM
[18] = target: LIM domain kinase 2 (Homo sapiens) (UniProt P53671); details: Compound concentration 1000.0 nM
[19] = target: Serine/threonine-protein kinase TNNI3K (Homo sapiens) (UniProt Q59H18); details: Compound concentration 1000.0 nM
[20] = target: Serine/threonine-protein kinase RIO3 (Homo sapiens) (UniProt O14730); details: Compound concentration 1000.0 nM
[21] = system: Mast/stem cell growth factor receptor Kit (Homo sapiens), P10721 [D816H]; details: Compound concentration 1000.0 nM
[22] = target: Serine/threonine-protein kinase Nek5 (Homo sapiens) (UniProt Q6P3R8); details: Compound concentration 1000.0 nM
[23] = target: Receptor-interacting serine/threonine-protein kinase 1 (Homo sapiens) (UniProt Q13546); details: Compound concentration 1000.0 nM
[24] = system: Epidermal growth factor receptor (Homo sapiens), P00533 [L858R,T790M]; details: Compound concentration 1000.0 nM
[25] = target: Cyclin-dependent kinase-like 3 (Homo sapiens) (UniProt Q8IVW4); details: Compound concentration 1000.0 nM
[26] = target: Citron Rho-interacting kinase (Homo sapiens) (UniProt O14578); details: Compound concentration 1000.0 nM
[27] = target: Serine/threonine-protein kinase Nek11 (Homo sapiens) (UniProt Q8NG66); details: Compound concentration 1000.0 nM
[28] = target: Histamine H2 receptor (Homo sapiens) (UniProt P25021); details: Compound concentration 10.0 uM
[29] = target: Tyrosine-protein kinase Tec (Homo sapiens) (UniProt P42680); details: Compound concentration 1000.0 nM
[30] = target: Delta-type opioid receptor (Homo sapiens) (UniProt P41143); details: Compound concentration 10.0 uM
[31] = target: Tyrosine-protein kinase ABL1 (Homo sapiens) (UniProt P00519); details: Compound concentration 1000.0 nM
[32] = target: Death-associated protein kinase 3 (Homo sapiens) (UniProt O43293); details: Compound concentration 1000.0 nM
[33] = target: Rho-associated protein kinase 1 (Homo sapiens) (UniProt Q13464); details: Compound concentration 1000.0 nM
[34] = target: Aurora kinase C (Homo sapiens) (UniProt Q9UQB9); details: Compound concentration 1000.0 nM
[35] = target: Mitogen-activated protein kinase kinase kinase kinase 1 (Homo sapiens) (UniProt Q92918); details: Compound concentration 1000.0 nM
[36] = target: Serine/threonine-protein kinase PAK 4 (Homo sapiens) (UniProt O96013); details: Compound concentration 1000.0 nM
[37] = target: Serine/threonine-protein kinase ULK1 (Homo sapiens) (UniProt O75385); details: Compound concentration 1000.0 nM
[38] = target: Death-associated protein kinase 1 (Homo sapiens) (UniProt P53355); details: Compound concentration 1000.0 nM
[39] = target: Receptor tyrosine-protein kinase erbB-4 (Homo sapiens) (UniProt Q15303); details: Compound concentration 1000.0 nM
[40] = target: Casein kinase I isoform epsilon (Homo sapiens) (UniProt P49674); details: Compound concentration 1000.0 nM
[41] = target: Activated CDC42 kinase 1 (Homo sapiens) (UniProt Q07912); details: Compound concentration 1000.0 nM
[42] = target: Serine/threonine-protein kinase WNK2 (Homo sapiens) (UniProt Q9Y3S1); details: Compound concentration 1000.0 nM
[43] = target: Serine/threonine-protein kinase LATS2 (Homo sapiens) (UniProt Q9NRM7); details: Compound concentration 1000.0 nM
[44] = target: Interleukin-1 receptor-associated kinase 3 (Homo sapiens) (UniProt Q9Y616); details: Compound concentration 1000.0 nM
[45] = target: Serine/threonine-protein kinase ULK3 (Homo sapiens) (UniProt Q6PHR2); details: Compound concentration 1000.0 nM
[46] = target: Wee1-like protein kinase 2 (Homo sapiens) (UniProt P0C1S8); details: Compound concentration 1000.0 nM

Chain of Activated CDC42 kinase 1 (Homo sapiens) (Q07912 whole entry, looked up): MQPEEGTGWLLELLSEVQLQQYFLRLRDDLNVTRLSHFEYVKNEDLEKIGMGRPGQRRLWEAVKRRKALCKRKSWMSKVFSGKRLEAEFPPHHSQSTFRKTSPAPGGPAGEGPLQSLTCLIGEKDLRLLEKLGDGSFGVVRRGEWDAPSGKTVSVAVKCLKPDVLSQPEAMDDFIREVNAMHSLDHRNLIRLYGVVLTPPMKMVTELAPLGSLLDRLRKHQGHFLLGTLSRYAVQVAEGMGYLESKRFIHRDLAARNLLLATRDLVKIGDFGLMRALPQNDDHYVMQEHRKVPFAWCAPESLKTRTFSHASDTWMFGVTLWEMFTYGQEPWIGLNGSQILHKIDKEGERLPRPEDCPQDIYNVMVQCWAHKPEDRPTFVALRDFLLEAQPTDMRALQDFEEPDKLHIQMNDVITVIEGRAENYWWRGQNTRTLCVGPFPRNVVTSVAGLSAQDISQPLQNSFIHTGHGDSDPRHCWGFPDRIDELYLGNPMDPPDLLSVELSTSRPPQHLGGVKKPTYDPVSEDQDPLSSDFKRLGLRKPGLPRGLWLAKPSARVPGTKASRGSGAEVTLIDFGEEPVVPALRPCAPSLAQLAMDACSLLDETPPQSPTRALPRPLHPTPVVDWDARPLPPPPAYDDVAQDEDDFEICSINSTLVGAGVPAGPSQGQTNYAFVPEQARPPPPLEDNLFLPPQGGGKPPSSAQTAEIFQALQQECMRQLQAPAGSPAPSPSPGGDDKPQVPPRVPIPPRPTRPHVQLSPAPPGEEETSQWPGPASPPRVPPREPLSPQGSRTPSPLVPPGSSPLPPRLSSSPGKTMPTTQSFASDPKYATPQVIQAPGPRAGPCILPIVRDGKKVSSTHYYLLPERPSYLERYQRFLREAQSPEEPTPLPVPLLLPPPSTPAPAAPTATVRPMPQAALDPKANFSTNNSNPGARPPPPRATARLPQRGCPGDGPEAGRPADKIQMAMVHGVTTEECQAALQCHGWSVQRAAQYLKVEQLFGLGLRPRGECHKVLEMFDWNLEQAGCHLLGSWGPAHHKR
Chain of Serine/threonine-protein kinase Nek11 (Homo sapiens) (Q8NG66 whole entry): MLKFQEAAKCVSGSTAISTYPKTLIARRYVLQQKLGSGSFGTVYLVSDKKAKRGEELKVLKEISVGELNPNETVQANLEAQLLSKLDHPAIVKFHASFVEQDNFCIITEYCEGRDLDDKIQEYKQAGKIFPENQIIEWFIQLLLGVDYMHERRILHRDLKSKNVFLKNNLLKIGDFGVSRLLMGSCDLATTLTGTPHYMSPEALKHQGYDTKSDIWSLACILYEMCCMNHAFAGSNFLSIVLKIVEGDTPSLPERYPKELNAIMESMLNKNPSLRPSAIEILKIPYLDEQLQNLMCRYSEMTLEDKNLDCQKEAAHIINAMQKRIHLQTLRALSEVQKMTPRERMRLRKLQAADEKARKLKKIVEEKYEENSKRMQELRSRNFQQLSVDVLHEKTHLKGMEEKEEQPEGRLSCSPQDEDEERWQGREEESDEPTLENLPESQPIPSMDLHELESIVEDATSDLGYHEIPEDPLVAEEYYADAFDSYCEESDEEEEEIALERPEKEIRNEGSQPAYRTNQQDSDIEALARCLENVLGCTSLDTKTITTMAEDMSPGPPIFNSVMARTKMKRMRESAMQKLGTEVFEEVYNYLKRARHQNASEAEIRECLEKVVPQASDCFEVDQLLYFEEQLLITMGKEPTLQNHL
Chain of Serine/threonine-protein kinase Nek5 (Homo sapiens) (Q6P3R8 whole entry): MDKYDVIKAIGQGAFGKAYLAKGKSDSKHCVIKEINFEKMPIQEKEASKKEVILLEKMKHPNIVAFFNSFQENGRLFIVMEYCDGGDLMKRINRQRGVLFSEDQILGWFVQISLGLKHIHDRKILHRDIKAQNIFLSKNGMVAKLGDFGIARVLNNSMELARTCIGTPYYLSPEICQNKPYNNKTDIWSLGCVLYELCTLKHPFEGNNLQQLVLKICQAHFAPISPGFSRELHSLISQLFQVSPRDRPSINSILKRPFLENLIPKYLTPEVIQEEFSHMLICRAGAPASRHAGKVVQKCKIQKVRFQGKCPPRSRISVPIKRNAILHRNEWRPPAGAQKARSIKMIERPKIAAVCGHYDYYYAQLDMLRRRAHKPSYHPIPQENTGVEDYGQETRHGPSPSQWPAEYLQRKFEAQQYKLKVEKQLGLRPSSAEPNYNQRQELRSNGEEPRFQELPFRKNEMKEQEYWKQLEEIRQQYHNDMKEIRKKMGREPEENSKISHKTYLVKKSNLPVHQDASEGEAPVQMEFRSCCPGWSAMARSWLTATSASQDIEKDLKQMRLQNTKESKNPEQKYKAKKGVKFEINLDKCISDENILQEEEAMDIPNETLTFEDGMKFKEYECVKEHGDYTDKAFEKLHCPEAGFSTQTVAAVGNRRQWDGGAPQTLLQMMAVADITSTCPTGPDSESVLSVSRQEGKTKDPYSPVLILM
Chain of Serine/threonine-protein kinase RIO3 (Homo sapiens) (O14730 whole entry): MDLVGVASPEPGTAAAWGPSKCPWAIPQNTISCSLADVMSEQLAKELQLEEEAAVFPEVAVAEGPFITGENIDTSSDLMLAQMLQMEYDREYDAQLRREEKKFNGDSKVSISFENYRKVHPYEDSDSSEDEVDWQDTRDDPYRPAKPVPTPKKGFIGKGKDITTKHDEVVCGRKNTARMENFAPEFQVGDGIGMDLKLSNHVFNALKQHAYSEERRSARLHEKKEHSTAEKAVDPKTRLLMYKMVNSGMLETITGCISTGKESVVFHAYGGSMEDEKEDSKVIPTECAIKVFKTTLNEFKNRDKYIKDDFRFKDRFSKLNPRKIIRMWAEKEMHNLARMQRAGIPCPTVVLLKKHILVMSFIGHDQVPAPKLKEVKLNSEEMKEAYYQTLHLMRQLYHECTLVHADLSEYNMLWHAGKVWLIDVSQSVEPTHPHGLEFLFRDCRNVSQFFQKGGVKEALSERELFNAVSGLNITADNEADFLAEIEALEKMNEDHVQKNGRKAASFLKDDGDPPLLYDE
Chain of Mitotic checkpoint serine/threonine-protein kinase BUB1 (Homo sapiens) (O43683 whole entry, looked up): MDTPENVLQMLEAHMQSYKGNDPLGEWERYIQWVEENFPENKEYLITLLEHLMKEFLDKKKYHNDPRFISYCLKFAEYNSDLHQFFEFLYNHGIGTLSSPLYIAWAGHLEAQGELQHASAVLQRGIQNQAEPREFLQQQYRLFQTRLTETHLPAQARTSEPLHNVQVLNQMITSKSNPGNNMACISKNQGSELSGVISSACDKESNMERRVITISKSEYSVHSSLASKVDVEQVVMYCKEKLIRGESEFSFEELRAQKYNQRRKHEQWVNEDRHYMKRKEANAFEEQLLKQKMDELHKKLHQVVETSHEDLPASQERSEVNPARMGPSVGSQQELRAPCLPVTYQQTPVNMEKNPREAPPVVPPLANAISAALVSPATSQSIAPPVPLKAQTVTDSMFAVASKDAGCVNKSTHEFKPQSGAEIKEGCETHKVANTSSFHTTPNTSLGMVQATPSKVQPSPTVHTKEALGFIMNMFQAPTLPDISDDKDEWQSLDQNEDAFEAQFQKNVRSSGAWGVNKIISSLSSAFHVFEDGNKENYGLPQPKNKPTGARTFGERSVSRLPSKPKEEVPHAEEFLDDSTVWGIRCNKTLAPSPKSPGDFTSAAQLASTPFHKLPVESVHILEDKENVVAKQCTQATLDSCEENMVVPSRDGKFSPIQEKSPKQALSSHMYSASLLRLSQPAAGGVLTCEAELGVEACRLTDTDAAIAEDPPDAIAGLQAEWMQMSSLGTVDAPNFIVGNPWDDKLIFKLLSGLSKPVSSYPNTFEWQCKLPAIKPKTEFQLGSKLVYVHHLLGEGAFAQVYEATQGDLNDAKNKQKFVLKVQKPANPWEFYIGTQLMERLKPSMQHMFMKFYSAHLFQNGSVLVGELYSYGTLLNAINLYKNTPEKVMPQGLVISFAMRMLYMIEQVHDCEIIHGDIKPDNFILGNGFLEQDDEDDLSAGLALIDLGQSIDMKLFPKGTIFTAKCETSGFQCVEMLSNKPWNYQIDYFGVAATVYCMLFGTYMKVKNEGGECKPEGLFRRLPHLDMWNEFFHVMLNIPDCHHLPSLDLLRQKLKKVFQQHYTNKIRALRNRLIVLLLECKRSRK
Chain of Casein kinase I isoform epsilon (Homo sapiens) (P49674 whole entry, looked up, canonical isoform): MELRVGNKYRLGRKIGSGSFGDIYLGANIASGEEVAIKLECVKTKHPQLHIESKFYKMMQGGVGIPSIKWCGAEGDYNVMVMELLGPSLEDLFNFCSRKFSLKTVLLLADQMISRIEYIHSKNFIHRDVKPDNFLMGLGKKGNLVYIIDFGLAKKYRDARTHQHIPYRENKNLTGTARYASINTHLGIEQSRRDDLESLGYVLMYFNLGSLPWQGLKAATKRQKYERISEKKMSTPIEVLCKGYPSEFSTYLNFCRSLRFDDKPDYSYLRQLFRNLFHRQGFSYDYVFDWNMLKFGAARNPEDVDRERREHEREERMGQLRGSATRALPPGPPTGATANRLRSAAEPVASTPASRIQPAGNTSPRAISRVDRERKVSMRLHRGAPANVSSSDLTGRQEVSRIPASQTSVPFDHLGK
Chain of Mitogen-activated protein kinase 14 (Homo sapiens) (Q16539 whole entry): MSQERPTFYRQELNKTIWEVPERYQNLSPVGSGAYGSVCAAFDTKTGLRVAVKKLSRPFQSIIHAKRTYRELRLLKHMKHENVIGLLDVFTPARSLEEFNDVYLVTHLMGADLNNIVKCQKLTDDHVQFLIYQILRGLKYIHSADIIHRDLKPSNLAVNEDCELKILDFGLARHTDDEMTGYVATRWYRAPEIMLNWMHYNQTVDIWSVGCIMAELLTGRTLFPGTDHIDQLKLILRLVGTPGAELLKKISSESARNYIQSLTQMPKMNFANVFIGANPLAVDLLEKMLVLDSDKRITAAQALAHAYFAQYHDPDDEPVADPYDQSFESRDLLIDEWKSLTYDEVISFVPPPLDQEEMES

O=C(O)[C@@H]1[C@@H](Cn2nnc3ccccc3c2=O)CC[C@H]1C(=O)c1ccc(OCCC2CCOCC2)cc1 [BAY-694]
inactive: residual activity [1] 100% | residual activity [2] 89% | residual activity [3] 83% | residual activity [4] 100% | residual activity [5] 94% | residual activity [6] 100% | residual activity [7] 100% | residual activity [8] 82% | residual activity [9] 89% | residual activity [10] 73% | residual activity [11] 87% | residual activity [12] 100% | residual activity [13] 100% | residual activity [14] 88% | inhibition [15] 5.09% | residual activity [16] 100% | residual activity [17] 93% | residual activity [18] 100% | residual activity [19] 94% | residual activity [20] 100% | residual activity [21] 68% | residual activity [22] 100% | residual activity [23] 100% | residual activity [24] 76% | residual activity [25] 98% | residual activity [26] 92% | residual activity [27] 100% | inhibition [28] 17.5% | residual activity [29] 95% | inhibition [30] 15.9% | residual activity [31] 95% | residual activity [32] 100% | residual activity [33] 84% | residual activity [34] 100% | residual activity [35] 91% | residual activity [36] 89% | residual activity [37] 100% | residual activity [38] 100% | residual activity [39] 100% | residual activity [40] 90% | residual activity [41] 100% | residual activity [42] 82% | residual activity [43] 100% | residual activity [44] 100% | residual activity [45] 100% | residual activity [46] 100%

O=C(O)[C@H]1[C@H](Cn2nnc3ccccc3c2=O)CC[C@@H]1C(=O)c1ccc(OCCC2CCOCC2)cc1 [BAY-7598]
inactive: residual activity [1] 100% | residual activity [2] 100% | residual activity [3] 97% | residual activity [4] 73% | residual activity [5] 69% | residual activity [6] 89% | residual activity [7] 91% | residual activity [8] 70% | residual activity [9] 85% | residual activity [10] 85% | residual activity [11] 100% | residual activity [12] 100% | residual activity [13] 100% | residual activity [14] 79% | inhibition [15] -5.14% | residual activity [16] 100% | residual activity [17] 75% | residual activity [18] 90% | residual activity [19] 100% | residual activity [20] 79% | residual activity [21] 80% | residual activity [22] 97% | residual activity [23] 84% | residual activity [24] 64% | residual activity [25] 87% | residual activity [26] 77% | residual activity [27] 100% | inhibition [28] 12.6% | residual activity [29] 100% | inhibition [30] 1.43% | residual activity [31] 80% | residual activity [32] 99% | residual activity [33] 87% | residual activity [34] 79% | residual activity [35] 87% | residual activity [36] 91% | residual activity [37] 95% | residual activity [38] 89% | residual activity [39] 89% | residual activity [40] 100% | residual activity [41] 100% | residual activity [42] 99% | residual activity [43] 100% | residual activity [44] 77% | residual activity [45] 85% | residual activity [46] 100%
